Some test systems named below: 786-0 renal; MDA-MB-435; SNB-75 CNS; T-47D breast; SN12C renal; HT29 colon; HL-60(TB) leukemia; NCI-H522 lung; RPMI-8226 leukemia; SW-620 colon.
Experiment in all cases: DTP human tumour cell line panel, 48 h

“And” between values parts separate entries of the source, which are not always exact repeats. Equal values may be shown once.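 Grown in 96-well plates, cells were treated for 48 hours with each compound at five concentrations. Insufficient inhibition: endpoint recorded as highest concentration tested. GI50 marks 50% less growth. TGI is the concentration that stops growth completely.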

As usually defined, the TGI is the concentration at which net growth stops. Higher therefore signals lower sensitivity of the cells. With `CCCOc1ccc(-c2nc(-c3ccc(N=Cc4ccc(N(CCOS(C)(=O)=O)CCOS(C)(=O)=O)cc4C)cc3)cs2)cc1`, the TGI is 26.5 µM with 786-0 renal; above 100 µM in the assay with MDA-MB-435; 18 µM in the assay on SNB-75 CNS; above 92.1 µM with T-47D breast; above 92.6 µM in the assay on SN12C renal; above 73.9 µM in the assay with HT29 colon. Also, the TGI is 54 µM in the assay with HL-60(TB) leukemia, 4.99 µM in the assay with NCI-H522 lung, above 100 µM in the assay on RPMI-8226 leukemia and above 100 µM with SW-620 colon.
Take `COc1c2ccoc2cc2oc(=O)ccc12`: the TGI with 786-0 renal, with MDA-MB-435, with SNB-75 CNS, in the assay with T-47D breast, in the assay with SN12C renal and in the assay on HT29 colon was above 100 µM in each case. Besides, the TGI with HL-60(TB) leukemia, in the assay on NCI-H522 lung, in the assay with RPMI-8226 leukemia and in the assay with SW-620 colon was above 100 µM each time.
Take `CC1=CC(=O)CC(C)(C)C1(O)/C=C/C(C)=C/C(=O)O` (stereo not given): the concentration for total growth inhibition (TGI) with 786-0 renal, in the assay on MDA-MB-435, in the assay on SNB-75 CNS, with T-47D breast, in the assay with SN12C renal and in the assay with HT29 colon was above 100 µM throughout. Also, the total growth inhibition concentration (TGI) in the assay on HL-60(TB) leukemia, in the assay with NCI-H522 lung, in the assay with RPMI-8226 leukemia and in the assay with SW-620 colon was above 100 µM in each case.
`Sc1ccc2ccccc2c1CNCc1ccccc1`: the concentration for total growth inhibition (TGI) was 37 µM with 786-0 renal; 29.9 µM in the assay on MDA-MB-435; 44.2 µM with SNB-75 CNS; above 100 µM in the assay on T-47D breast; 25.7 µM with SN12C renal; above 100 µM in the assay with HT29 colon. Further, the TGI with HL-60(TB) leukemia is 26.9 µM; in the assay on NCI-H522 lung, 18.3 µM; in the assay on RPMI-8226 leukemia it was 31.9 µM; in the assay on SW-620 colon it was above 100 µM.
A word on the GI50: it is the concentration giving 50% growth inhibition. Turning to `C=C(C)[C@@H]1CC[C@]2(C(N)=O)CC[C@]3(C)[C@H](CC[C@@H]4[C@@]5(C)CC[C@H](O)C(C)(C)[C@@H]5CC[C@]43C)[C@@H]12`, the GI50 is 2.03 µM in the assay on 786-0 renal; 8.65 µM in the assay on MDA-MB-435; 2.74 µM in the assay on SNB-75 CNS; 4.55 µM in the assay with T-47D breast; 3 µM in the assay with SN12C renal; 2.56 µM with HT29 colon. Also, the GI50 in the assay with HL-60(TB) leukemia was 3.59 µM; with NCI-H522 lung, 3.13 µM; in the assay with RPMI-8226 leukemia, 3.53 µM; in the assay on SW-620 colon, 3.88 µM. Moreover, the TGI in the assay on 786-0 renal was 4.61 µM; with MDA-MB-435, above 100 µM; in the assay on SNB-75 CNS, 12.1 µM; in the assay with T-47D breast it was 26.9 µM; with SN12C renal, 10.6 µM; in the assay on HT29 colon, 7.42 µM. Moreover, the TGI in the assay on HL-60(TB) leukemia stood at 17.5 µM; in the assay on NCI-H522 lung, 16.3 µM; in the assay with RPMI-8226 leukemia, 24.9 µM; with SW-620 colon, 26.1 µM.
For `Fc1ccc(-c2nn3c(CNc4ccccc4)nnc3s2)cc1`, the GI50 was 56.2 µM with 786-0 renal; 18.7 µM in the assay on MDA-MB-435; 52.2 µM in the assay with SNB-75 CNS; 29.6 µM in the assay with T-47D breast; 22.7 µM in the assay with SN12C renal; 39.2 µM in the assay with HT29 colon. For the same compound, the GI50 is above 100 µM in the assay with HL-60(TB) leukemia, 34.5 µM in the assay on NCI-H522 lung, 6.99 µM in the assay on RPMI-8226 leukemia and 40.6 µM in the assay with SW-620 colon. The TGI was above 100 µM in the assay with 786-0 renal; 51.6 µM with MDA-MB-435; above 100 µM with SNB-75 CNS; above 100 µM in the assay with T-47D breast; 90.8 µM in the assay with SN12C renal; above 100 µM with HT29 colon. Moreover, the TGI with HL-60(TB) leukemia, in the assay on NCI-H522 lung, in the assay with RPMI-8226 leukemia and in the assay with SW-620 colon was above 100 µM throughout.
As for `O=C(c1ccc(OCCN2CCCCC2)cc1)c1c(-c2ccc(O)cc2)sc2cc(O)ccc12`, the GI50 was 4.5 µM and 7.58 µM with 786-0 renal; 1.94 µM and 4.2 µM with MDA-MB-435; 7.55 µM and 8.56 µM in the assay on SNB-75 CNS; 2.77 µM and 5.89 µM with T-47D breast; 13.5 µM and 14.5 µM in the assay on SN12C renal; 14.9 µM and 4.1 µM with HT29 colon. In addition, the GI50 in the assay with HL-60(TB) leukemia is 2.02 µM; in the assay on NCI-H522 lung, 11 µM and 16.5 µM; in the assay on RPMI-8226 leukemia, 5.54 µM and 2.41 µM; in the assay on SW-620 colon, 7.64 µM and 13.4 µM. Further, the TGI is 18.2 µM and 27.6 µM in the assay with 786-0 renal; 4.58 µM and 19.7 µM in the assay on MDA-MB-435; 20.6 µM and 23.6 µM with SNB-75 CNS; 20 µM and > 50.2 µM in the assay with T-47D breast; 29.7 µM and 29.8 µM with SN12C renal; 32.3 µM and 33.4 µM in the assay on HT29 colon. For the same compound, the TGI was 12.7 µM in the assay with HL-60(TB) leukemia; 28.6 µM and 37.3 µM in the assay on NCI-H522 lung; 77 µM and > 23.1 µM with RPMI-8226 leukemia; 22 µM and 39.2 µM in the assay with SW-620 colon.
With `Cc1cc(C(=O)Nc2nc3cccc(Cl)c3n2[C@@H]2CCCCN(C(=O)/C=C/CN(C)C)C2)ccn1`, the GI50 in the assay on 786-0 renal was 3.78 µM; with MDA-MB-435, 9.49 µM; in the assay on SNB-75 CNS it was 5.63 µM; with T-47D breast it was 1.5 µM; with SN12C renal it was 3.51 µM; with HT29 colon it was 9.91 µM. In addition, the GI50 in the assay on HL-60(TB) leukemia was 17 µM; with NCI-H522 lung it was 0.108 µM; with RPMI-8226 leukemia, 9.25 µM; in the assay on SW-620 colon it was 14.6 µM. For the same compound, the TGI with 786-0 renal was determined as 21.6 µM; in the assay on MDA-MB-435 it was 23.3 µM; in the assay with SNB-75 CNS, 19 µM; in the assay with T-47D breast it was 23.7 µM; in the assay with SN12C renal, 22.2 µM; with HT29 colon, 30.2 µM. For the same compound, the total growth inhibition concentration (TGI) with HL-60(TB) leukemia was found to be 38.3 µM; in the assay on NCI-H522 lung it was 14.4 µM; in the assay with RPMI-8226 leukemia, 32 µM; in the assay on SW-620 colon, 31.5 µM.
Consider `CN(C)CCCNC(=O)c1ccc2oc3cc4ccccc4c(=O)n3c2c1`, for which the GI50 was above 50 µM with 786-0 renal; 31.6 µM in the assay with MDA-MB-435; 12.6 µM in the assay on SNB-75 CNS; above 50 µM in the assay with T-47D breast; 45.6 µM in the assay on SN12C renal; 15.4 µM in the assay on HT29 colon. Moreover, the GI50 in the assay with HL-60(TB) leukemia is 29.8 µM; with NCI-H522 lung, 17.4 µM; with RPMI-8226 leukemia, above 50 µM; in the assay on SW-620 colon, 24.3 µM. Moreover, the total growth inhibition concentration (TGI) with 786-0 renal was above 50 µM; in the assay on MDA-MB-435, above 50 µM; with SNB-75 CNS, 33.1 µM; in the assay on T-47D breast it was above 50 µM; in the assay on SN12C renal, above 50 µM; in the assay with HT29 colon, 46.8 µM. For the same compound, the TGI in the assay with HL-60(TB) leukemia, in the assay with NCI-H522 lung, in the assay with RPMI-8226 leukemia and in the assay on SW-620 colon was above 50 µM each time.

These data come from PubChem BioAssay (NCI).
